From patent US20230257429A1, “PEPTIDE ADJUVANT FOR ITS THERAPEUTIC APPLICATIONS IN VIRAL AND TUMOUR VACCINE DEVELOPMENT AND CANCER IMMUNOTHERAPY AND AUTOIMMUNE DISEASE DIAGNOSIS AND TREATMENTS” (National University of Singapore, priority 2020, published 2023)
“Also recorded” adds a separate entry of the source.

Experiments:
Type in all cases: cell-based, human
dendritic cells (DC) [1] = assay: Dendritic cell penetration, confocal microscopy; conditions: data not shown
dendritic cells (DC) [2] = assay: DC maturation, surface markers by flow cytometry; conditions: 200 μg/ml, 48 hr
Procedure: In some experiments, to detect surface proteins on cultured DC, cells were harvested at day 6 and re-suspended at 1×10^5/ml in macrophage serum free medium (Thermo Fisher Scientific, cat #12065074). Cells were incubated for 1 hr on ice with fluorescent antibodies specific for CD14 (PE), CD1a (PE), or isotype-matched IgG. Cells were washed and analysed by flow cytometry. The harvested DC were also resuspended in the medium at 5×10^4/ml and cultured for 48 hr with LPS (0.5 μg/ml), P2M6 (200 μg/ml) or, as a control, PBS. Cells were then incubated with fluorescently tagged antibodies specific for MHC class II, CD40, CD80, CD83, CD86, and corresponding isotype controls. Cells were analysed by flow cytometry.
NCL-P2 was previously shown to activate DC as judged by TNFα induction [Wu, S., et al., Cell Death Dis 12: 477 (2021)]. Whether P2+G effectively activates these cells into mature antigen-presenting cells (APC) for effective T cell activation has not been examined. To this end, DC were stimulated for 48 hr with P2+G (200 μg/ml) or, as a positive control, LPS (0.5 μg/ml). As a negative control, DC were cultured without specific stimulation by adding equivalent volumes of PBS. DC were cultured from monocytes and were typically CD14^lo/− CD1a^hi [Cao, W., et al., Blood 107: 2777-2785 (2006)]. Cells were examined for surface expression of MHC class II, CD40, CD80, CD83 and CD86.

PBMC [3] = assay: PBMC activation, TNFα and IL-1β ELISA; conditions: PBMC stimulated 24 hr, TNFα in media
Procedure: Buffy coat fractions were obtained from healthy blood donors at the Singapore Health Sciences Authority, with Institutional ethics approval, and PBMC were isolated using Ficoll-Paque (GE Healthcare). To isolate monocytes, PBMC were re-suspended to 1×10^7 cells/ml in the RPMI medium contained 5% (v/v) BCS and incubated for 1 hr in T75 flasks (20 ml/flask). Monocytes that adhered were harvested. To culture macrophages and DC [Cao, W., et al., Blood 107: 2777-2785, (2006), incorporated herein by reference], monocytes were resuspended to 1×10^6 cells/ml and cultured in 6-well plates (2 ml/well). Macrophages were cultured by adding M-CSF to 20 ng/ml and DC were cultured with 20 ng/ml GM-CSF and 40 ng/ml IL-4. M-CSF, GM-CSF and IL-4 were obtained from R&D Systems (Mineapolis, Minn.). Cells were cultured for 6 days with half of the media being replenished every two days.
Purified proteins in PBS (30 μg/ml) were coated in triplicates in 96-well plates (50 μl/well) for 12 hr and PBMC (3×10^6 cells/ml), monocytes (1×10^6 cells/ml), macrophages (0.5×10^6 cells/ml) or DC (0.5×10^6 cells/ml) were re-suspended in macrophage serum-free medium containing penicillin and streptomycin and cultured for 24 hr in these plates at 100 μl/well. Where TLR ligands were used to stimulate these cells, they were added to the media: LPS (500 ng/ml for DC and macrophages and 10 ng/ml for PMBC and monocytes, InvivoGen), flagellin (1 μg/ml, InvivoGen), lipoteichic acid (LTA, 10 μg/ml). Cell activation was determined by measuring TNFα and IL-1β in the culture media using ELISA kits (Invitrogen).

[4] = system: autologous CD4 and CD8 T cells; assay: Antigen-loaded DC co-culture with autologous lymphocytes, proliferation; conditions: DC:T 1:5, 2 weeks co-culture, CellTrace Violet
Procedure: PBMC were isolated from healthy blood donors from which monocytes were isolated to culture DC and the remaining cells (mostly lymphocytes) were stored frozen as a source of autologous lymphocytes. DC were then incubated for 24 hr with P2+G, IPA1E2 or the IPA1E2-P2+G fusion polypeptide (SEQ ID NO: 58) in round bottom 96-well plates (5×10^4 cells/well) without adding additional adjuvants. The frozen lymphocytes were revived and labelled with CellTrace Violet (2.5 μM) for 10 min at 37° C. and then added to the DC wells at 2.5×10^5 cells/well (DC:T ratio=1:5). After 2 weeks of co-culture, the proliferation of CD4+ and CD8+ T cell and CD19+ B cell was analyzed by flow cytometry.

PBMC [5] = assay: Peptide binding to and penetration of PBMC, flow cytometry; conditions: PBMC, peptide 200 μg/ml, 1 hr at 4° C.
How it was run: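 PBMC (3×10^6/ml, serum-free macrophage medium) incubated 1 h with biotinylated-detected peptides at 200 μg/ml, at 37 °C or 4 °C. Streptavidin-AF488 flow cytometry with viability dye, with or without permeabilization to separate surface binding from internalization; monocytes, T and B cells gated separately.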

dendritic cells (DC) [6] = assay: Dendritic cell penetration, confocal microscopy
Procedure: DC were harvested and cultured overnight on glass coverslips. The cells were first incubated for 1, 5, 15, 30 or 60 min with P2M6 (200 μg/ml) at 4° C. and then fixed in 4% (w/v) paraformaldehyde (PFA) for 20 min. Cells were permeabilized for 30 min in 0.1% (w/v) saponin and then incubated for 1 hr with streptavidin-AF488 (50 μg/ml). Cells were then mounted for imaging analysis. Alternatively, P2M6 was pre-incubated for 1 hr on ice with streptavidin-AF488 at 50 μg/ml and the peptide-streptavidin complexes were at 1/10 dilution incubated with DC for 1, 5, 15, 30 or 60 min at 4° C. and the cells were, after washing, directly mounted without fixation or permeabilization.
In another experiment set up, DC (2×10^5/ml) were incubated for 1 hr at 4° C. with P2M6 at different concentrations (10, 25, 50, 100, or 200 μg/ml). Cells were fixed and permeabilized to incubate for 1 hr with streptavidin-AF488 (50 μg/ml). Cells were washed and mounted for imaging analysis. Alternatively, Different concentrations of P2M6 ([…]) were pre-incubated for 1 hr on ice with streptavidin-AF488 (500 μg/ml). The preformed complexes were at 1/10 dilutions incubated with DC for 1 hr at 4° C. The cells were, after washing, directly mounted without fixation or permeabilization.
All cells were mounted using the VectaShield mounting medium containing DAPI (Vector Laboratories). Cells were analyzed using the FluoView FV3000 confocal microscope equipped with a 100× oil objective (aperture 1.45) and Cool/SNAP HQ2 image acquisition camera (Olympus). Images were captured with the FV-ASW 1.6b software and analyzed using the Imaris software (Bitplane AG).

Sequence: GGFGGRGGGRGGRGGFGGRGGRGGFGGRGGFRGGRGG (NCL-P2+G)
- carrying ovalbumin into DC cytoplasm (dendritic cells (DC) [1]): carried ovalbumin into DC cytoplasm
- DC maturation (MHC class II, CD40, CD80, CD83, CD86) (dendritic cells (DC) [2]): effectively activated DC maturation
- adjuvant (alarmin) activity compared with NCL-P2 (PBMC [3]): significantly higher alarmin activity
- increase in adjuvant (alarmin) activity compared with NCL-P2 (PBMC [3]): 3 fold
- T cell proliferation / activation induced by peptide-loaded DC [4]: might not induce significant T cell activation to itself
- CPP activity compared with NCL-P2 (PBMC [5]): slightly higher CPP activity
- CPP activity compared with NCL-P2 (PBMC [5]; listed as P2+G): slightly increased their CPP activities
- carrying cargo protein streptavidin into DC cytoplasm (dendritic cells (DC) [6]): can carry cargo proteins across the cell membrane into the cytoplasm; also recorded: carry a cargo protein streptavidin into the DC cytoplasm
- time of incubation within which DC were penetrated (dendritic cells (DC) [6]; 200 μg/ml, 4° C.): ≤ 1 min
- DC penetration over time (dendritic cells (DC) [6]; 1, 5, 15, 30 and 60 min, 4° C.): increased progressively from 5 to 60 min
- DC penetration at 10 μg/ml of P2+G (dendritic cells (DC) [6]; 1 hr at 4° C.): not detectable; also recorded: no detectable DC penetration
- DC penetration at 25 μg/ml of P2+G (dendritic cells (DC) [6]; 1 hr at 4° C.): low level of DC penetration
- time to saturation of DC penetration (dendritic cells (DC) [6]; P2+G 200 μg/ml, on ice): 30 min
- intracellular localisation in DC (dendritic cells (DC) [6]; confocal microscopy): penetrated into the nucleoli faster than it penetrated into the cytoplasm
- change of intracellular pool in DC with increasing P2+G concentration (dendritic cells (DC) [6]; free peptide 25 to 200 μg/ml, streptavidin-bound 10 to 100 μg/ml): increased following increasing concentrations
